Experimental data taken from patent publication US12478602B2, “Method for treating a disorder” (priority 2023, dated 2025).
Like-named read-outs stand apart in the source and are kept apart here.

What was measured:
[1] = Pharmacokinetic experiment in Beagle dog; assay type: in vivo; details: for bioavailability / half-life: Beagle, dog, plasma; for bioavailability: po, read-out: bioavailability by the oral administration; for half-life: read-out: drug loss half-life (t1/2) (converted); for AUCinf: fasting
Method: 4 g or 8 g of L-serine was orally or intravenously administered to Beagle dogs (1.8 to 2.6 years old, 8.6 to 11.6 kg, n=20). Blood collection was divided into blood collection before L-serine administration (basal blood collection) and blood collection after administration (main blood collection). During the experiment, the Beagle dogs were maintained in a fasting state, and L-serine concentration in the plasma was analyzed by LC-MS/MS.

[2] = system: mice having autism spectrum disorder; assay: Individual recognition (novel object recognition, NOR) experiment; assay type: in vivo, mouse; details: 180, 300, 480 or 600 mg/kg/day orally for 21 days; with increasing dosage
Method: Mice having autism spectrum disorder were created by the same method as in Example 1.1. The 3-week-old male mice having autism spectrum disorder were orally injected with 180, 300, 480, or 600 mg/kg/day of L-serine for 21 days and then subjected to an individual recognition test. Eight mice were used for each experimental group. Mice tend to be more interested in a novel object than a familiar object. Therefore, a novel object recognition (NOR) experiment, which is an experiment for checking whether or not mice recognize a novel object, was carried out.

[3] = system: pediatric patients having autism spectrum disorder; assay: Clinical trial of 52-week continuous administration, safety
[4] = system: dopamine neurons in the midbrain VTA region; assay: Patch clamp of spontaneous action potential (dopamine secretion normalization); assay type: in vivo, mouse; details: 250 mg/kg to 500 mg/kg
Method: A mouse model of autism spectrum disorder was created with the method described in Example 1.1. The 3-week-old male mice having autism spectrum disorder were divided into a group (n=6) orally injected with 250 mg/kg of AST-001 for 2 weeks and a group (n=6) orally injected with 500 mg/kg of AST-001 for 2 weeks, and were orally administered with AST-001. The 3-week-old male normal mouse group and the autism spectrum disorder mouse group (n=6) were orally administered with water once a day for 2 weeks and then used as a control group (n=6) in the behavioral experiment. The spontaneous action potential of dopamine neurons in the midbrain VTA region of the 5-week-old normal mice and the 5-week-old mice having autism spectrum disorder was checked with a patch clamp. It turned out that mice having autism spectrum disorder show a reduced firing rate of the spontaneous action potential as compared with the normal mice (see FIG. 3A). As a result, dopamine secretion has been reduced in a mouse having autism spectrum disorder, and it can be seen that the reduced dopamine secretion has caused behavioral abnormalities related to the dopamine pathway, such as attention, reward, and cognition.

N[C@@H](CO)C(=O)O [AST-001, L-serine]
bioavailability ([1]; 4 g per individual): 106%
bioavailability ([1]; 8 g per individual): 84.2%
half-life ([1]; oral 4 g): 228 ± 84 min
half-life ([1]; oral 8 g): 282 ± 108 min
AUCinf ([1]; oral 4 g): 628 ± 108 µg·h/mL
AUCinf ([1]; oral 8 g): 1330 µg·h/mL
discrimination index (DI) [2]: increased
serious adverse events and deaths evaluated to be related ([3]; 52-week continuous administration): no serious adverse events and no deaths
COVID-19 infection adverse events ([3]; high dose group): 6 events
COVID-19 infection adverse events ([3]; low dose group): 5 events
dopamine secretion [4]: increases
